Test results from US20120046317A1, “NOVEL HETEROCYCLIC COMPOUNDS” (priority 2009, published 2012).
Like-named read-outs stand apart in the source and are kept apart here.

Key:
[1] = test system: AGE-LDL formation (Low density lipoprotein incubated with CuCl2); test: In vitro inhibition of AGE-LDL formation: LDL incubated with CuCl2, MDA-lysine adduct fluorescence; assay type: biochemical; details: Conc. 250 uM; LDL with CuCl2 at 37° C.
Method: In vitro Inhibition of AGE-LDL Formation:
Low density lipoprotein (LDL) was incubated with CuCl2 at 37° C. in phosphate buffered saline in the presence and absence of the following compounds. […] Results were expressed as % MDA-lysine adducts accumulation, considering the extent of the same formed upon incubation with CuCl2 alone as 100%.

[2] = rat, in vivo, po, 10 mg/kg
Method: (§1) Summary of Oral Pharmacokinetics of Reference Compound-T and Compound No. 100 in Wistar Rat:
(§2) Single dose pharmacokinetics of Reference compound-T (3-((2-(methylsulfonyl)hydrazino)carbonyl)-1-(2-oxo-2-thienylethyl)pyridinium chloride) and compound no. 100 was studied in male Wistar rat (280-300 gm, n=5) after oral administration at a dose of 10 mg/kg. Blood samples were obtained serially from jugular vein cannulated animals at selected time points and concentration of Reference compound-T and compound no. 100 in plasma was determined by LC-MS/MS. Non-compartmental pharmacokinetic analysis was performed using WinNonlin 5.2. […] 100.

[3] = male, dog, in vivo, po, 15 mg/kg
Method: (§3) Non-compartmental pharmacokinetic analysis was performed using WinNonlin 5.2.

[4] = in vivo; details: male, Wistar, rat, po, 10 mg/kg
Method: as §1, §2

[5] = in vivo; details: male, dog, po, 15 mg/kg
Method: as §3

[6] = test system: AGE-BSA Formation (Bovine Serum Albumin incubated with ribose); test: In vitro prevention of advanced glycation endproducts (AGEs) accumulation: BSA incubated with ribose, fluorescence; details: Conc. 1 mM, one week
Method: A reduction in fluorescence intensity in the presence of the test compound is an indication of its ability to prevent accumulation of advanced glycation endproducts.
Bovine Serum Albumin was incubated with ribose alone as well as with ribose and different concentrations of the following compounds under aseptic conditions for one week. At the end of the incubation period fluorescence intensity of the samples was measured at excitation and emission wavelengths of 355 nm and 460 nm respectively.

[7] = Single dose oral pharmacokinetics of Reference compound-T and compound no. 100 in dog; details: male dog, 15 mg/kg, administered compound in plasma, mean
Method: as §3

[8] = Single dose oral pharmacokinetics of Reference compound-T and compound no. 100 in Wistar rat; details: male Wistar rat, 10 mg/kg
Method: as §1, §2

[9] = test system: Ob-ZSF1 animal model; details: cited from earlier work
[10] = test system: diabetic spontaneously hypertensive rats; details: cited from earlier work
[11] = test system: patients; details: phase 2 clinical studies; particularly in more severely affected patients; cited from earlier work
[12] = administered compound in plasma, mean

For `CS(=O)(=O)NNC(=O)C1=CN(CC(=O)c2cccs2)C=CC1` [Compound no. 100, N′-(methylsulfonyl)-1-[2-oxo-2-(thiophen-2-yl)ethyl]-1,4-dihydropyridine-3-carbohydrazide], the “% Inhibition of AGE-LDL-formation” value [1] was “++++ (++++ indicate >30%)”, the Absorption [2] was “absorbed rapidly” and the “Maximum plasma concentration of reference compound converted after administration of compound no. 100 in comparison to the administration of ref. compound” value [3] was roughly 3.6 times. For the same molecule, the AUC(0-t) [4] was 1.41 µg·h/mL, the Cmax [4] was 1.35 µg/mL and the AUC(0-t) [5] was 1.78 µg·h/mL. The Cmax [5] was 0.397 µg/mL and the “% Inhibition of AGE-BSA Formation” value [6] was “++ (++ indicate 11-20%)”.

With `CS(=O)(=O)NNC(=O)c1ccc[n+](CC(=O)c2cccs2)c1.[Cl-]` [Reference compound-T, 3-((2-(methylsulfonyl)hydrazino)carbonyl)-1-(2-oxo-2-thienylethyl)pyridinium chloride] the “AUC(0-24 hr)” value [7] was 2.477 µg·h/mL, the Cmax [7] was 0.2584 µg/mL and the Absorption [8] was “absorbed rapidly”. For the same molecule, the “AUC(0-8 hr)” value [8, 12] was 0.2036 µg·h/mL and the Cmax [8, 12] was 0.1005 µg/mL.

In the case of `CS(=O)(=O)NNC(=O)c1ccc[n+](CC(=O)c2cccs2)c1.[Cl-]` [TRC4186], the “Effect on diabetic cardiomyopathy and nephropathy” value [9] is given as “preserved cardiac function and reduced the severity of renal dysfunction”.

In the case of `CS(=O)(=O)NNC(=O)c1ccc[n+](CC(=O)c2cccs2)c1.[Br-]` [TRC4149], the “Effect on endothelial and cardiac function” value [10] is given as “preserved endothelial and cardiac function”.

In the case of `Cc1sc[n+](CC(=O)c2ccccc2)c1C` [Alagebrium], the “Effect on cardiac function and systolic blood pressure” value [11] is given as “effective in improving cardiac function and uncontrolled systolic blood pressure”.

In the case of `Cc1ccc(C(=O)CN2CCCC(C(=O)NNS(C)(=O)=O)C2)s1` (stereo not shown) [compound 164, N′-(methylsulfonyl)-1-[2-(5-methylthiophen-2-yl)-2-oxoethyl]piperidine-3-carbohydrazide], the “% Inhibition of AGE-LDL-formation” value [1] is reported as “+ (+ indicate 0-10%)” and the “% Inhibition of AGE-BSA Formation” value [6] is reported as “+ (+ indicate 0-10%)”.

With `CS(=O)(=O)NNC(=O)C1CCCN(CC(=O)c2cccs2)C1` (stereo not shown) [compound 184, N′-(methylsulfonyl)-1-[2-oxo-2-(thiophen-2-yl)ethyl]piperidine-3-carbohydrazide] the “% Inhibition of AGE-LDL-formation” value [1] was “+++ (+++ indicate 21-30%)” and the “% Inhibition of AGE-BSA Formation” value [6] was “+ (+ indicate 0-10%)”.

With `Cc1ccc(C(=O)CN2C=CCC(C(=O)NNS(C)(=O)=O)=C2)s1` [Compound no. 13, N′-(methylsulfonyl)-1-[2-(5-methylthiophen-2-yl)-2-oxoethyl]-1,4-dihydropyridine-3-carbohydrazide] the “% Inhibition of AGE-LDL-formation” value [1] was “++++ (++++ indicate >30%)” and the “% Inhibition of AGE-BSA Formation” value [6] was “+++ (+++ indicate 21-30%)”.
